For assay [1], the target named is T1, CCK-A receptors (Rattus norvegicus, UniProt P30551).
T1 construct: The pancreas of an SD rat was homogenized; from tissue; host or cells: SD rat pancreas membrane preparation
T1 sequence (P30551 1-444): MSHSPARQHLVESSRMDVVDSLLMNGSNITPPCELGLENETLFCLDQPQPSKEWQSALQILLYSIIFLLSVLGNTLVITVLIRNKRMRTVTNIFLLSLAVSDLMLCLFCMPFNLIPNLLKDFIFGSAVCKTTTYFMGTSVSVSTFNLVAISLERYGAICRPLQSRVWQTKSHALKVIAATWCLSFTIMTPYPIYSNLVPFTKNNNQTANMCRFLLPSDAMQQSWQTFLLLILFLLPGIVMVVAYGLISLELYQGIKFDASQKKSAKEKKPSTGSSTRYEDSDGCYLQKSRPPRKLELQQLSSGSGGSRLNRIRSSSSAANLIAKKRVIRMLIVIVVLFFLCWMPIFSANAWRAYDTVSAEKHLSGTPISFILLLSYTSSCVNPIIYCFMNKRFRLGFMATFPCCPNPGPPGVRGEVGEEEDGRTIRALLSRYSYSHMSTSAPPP
The assay can be described thus: Measurement of binding affinity for CCK-A receptors ([3H]L-364,718 displacement, pancreas membrane preparation). On the set-up: species or system SD rat. Here is the method:
The pancreas of an SD rat was homogenized in a 20-fold volume of 50 mM Tris-HCl buffer (pH 7.7) by the use of a Polytrone-type homogenizer, the homogenate was twice centrifuged for 10 minutes at 50000 g by the use of an ultra-centrifuge, the precipitate thus obtained was suspended in a 40-fold volume of 50 mM Tris-HCl buffer (containing 0.2% BSA, 5 mM MgCl2, 0.1 mg/ml bacitracin and 5 mM DTT; pH 7.7), and the suspension was stored at -80°C until the membrane preparations were required.
The membrane preparations were then warmed to room temperature, diluted 1:10 with the buffer and incubated at 37°C for 30 minutes in the presence of [^3H]L-364,718 and the test compound then separated by suction filtration. Non-specific binding was determined in the presence of 1 µM L-364,718. The amount of labelled ligand bound to the receptor was measured by the use of a liquid scintillation counter; IC50 values were determined, being that concentration of test compound required to inhibit specific binding by 50%

Assay [2] addresses T2, CCK-B receptors (Rattus norvegicus, UniProt P30553).
T2 construct: the whole brain was immediately excised from each of the rats and homogenized; from tissue; host or cells: SD rat whole-brain membrane preparation
Nature of the assay: Measurement of binding affinity for CCK-B receptors ([125I]BH-CCK-8 displacement, brain membrane preparation). On the set-up: species or system SD rats. The note with it: for A/B Ratio: selectivity, ratio IC50 (CCK-A)/IC50 (CCK-B). As to the method:
About 100 SD rats were decapitated without anaesthesia, the whole brain was immediately excised from each of the rats and homogenized in 10-fold volume of 0.32 M aqueous solution of sucrose by the use of a Teflon-coated homogenizer, the homogenate thus obtained was centrifuged for ten minutes at 900 g by the use of a cooled centrifuge, and the supernatant was further centrifuged for 15 minutes at 11500 g. The precipitate thus obtained was dispersed in 50 mM Tris-HCl buffer (pH 7.4) containing 0.08% Triton X-100, this suspension was allowed to stand for 30 minutes and again centrifuged for 15 minutes at 11500 g, the precipitate thus obtained was washed twice with 5 mM Tris-HCl buffer and twice with 50 mM Tris-HCl buffer in that order with centrifugal separation, the washed precipitate was suspended in 50 mM Tris-HCl buffer, and the suspension thus obtained was stored at -80°C until the membrane preparation was required.
The membrane preparations were warmed to room temperature, diluted with 10 mM HEPES buffer (containing 130 mM NaCl, 5 mM MgCl2, 1 mM EGTA and 0.25 mg/ml bacitracin; pH 6.5) and incubated at 25°C for 120 minutes in the presence of [^125I]BH-CCK-8 and the test compound, then separated by suction filtration. Non-specific binding was determined in the presence of 1 µM CCK-8. The amount of labelled ligand bound to the receptor was measured by the use of a γ-counter; IC50 values were determined, being that concentration of test compound required to inhibit specific binding by 50%.

For assay [3], the system named is pentagastrin-stimulated gastric acid secretion. The assay can be described thus: Inhibition of pentagastrin-stimulated gastric acid secretion in dog (Heidenhain pouch). In kind it is in vivo, male beagle dogs. The note with it: maximum inhibition of stimulated acid output, oral, pentagastrin 8 µg/kg/hr infusion, mean for 3 - 5 animals. Here is the method:
Assays were performed using male beagle dogs (7 - 12 kg) two months after surgical preparation of Heidenhain pouches following the conventional procedure. Each dog was used only once per week.
The animals were deprived of food with free access to water for 18 hr prior to the experiment. The gastric juice was collected from the gastric canula by gravity drainage every 15 min, and acid output was determined by automatic titration with 0.05 N NaOH to pH 7.0 (Comtite-7, Hiranuma, Tokyo, Japan). Drugs were administered orally 3 hr after the start of the pentagastrin (8 µg/kg/hr) infusion. The effect of each drug was calculated as the percentage inhibition of stimulated acid output. […] Each result is a mean for 3 - 5 animals.

[4] abbreviates: rat pancreas membranes, [3H]L-364,718, 37°C, 30 minutes, read-out: Receptor binding affinity IC50(nM) CCK-A.
Where [5] appears, read: rat whole brain membranes, [125I]BH-CCK-8, 25°C, 120 minutes, read-out: Receptor binding affinity IC50(nM) CCK-B.

Where two headings read alike, the source gives them in different places.

A word on the IC50: it is the concentration that gives 50% inhibition.

T2 sequence (P30553 whole entry): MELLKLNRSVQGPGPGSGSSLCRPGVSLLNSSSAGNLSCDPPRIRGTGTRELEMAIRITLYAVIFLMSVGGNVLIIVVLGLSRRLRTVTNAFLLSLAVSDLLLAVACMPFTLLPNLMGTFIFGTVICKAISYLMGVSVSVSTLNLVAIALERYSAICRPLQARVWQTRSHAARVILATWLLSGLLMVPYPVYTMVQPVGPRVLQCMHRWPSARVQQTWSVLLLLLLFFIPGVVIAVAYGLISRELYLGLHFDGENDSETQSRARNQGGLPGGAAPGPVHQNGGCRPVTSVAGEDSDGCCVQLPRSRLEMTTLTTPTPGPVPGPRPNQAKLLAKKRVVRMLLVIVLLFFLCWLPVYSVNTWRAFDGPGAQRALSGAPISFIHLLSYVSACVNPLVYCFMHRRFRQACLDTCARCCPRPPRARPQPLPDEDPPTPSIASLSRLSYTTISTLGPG

As to `CN(C)c1cccc(NC(=O)NC2N=C(c3ccccc3)c3ccccc3N(CC(=O)C(C)(C)C)C2=O)c1` (racemic) [Example 41, N-((3RS)-1-tert-Butylcarbonylmethyl-2,3-dihydro-2-oxo-5-phenyl-1H-1,4-benzodiazepin-3-yl)-N'-(3-dimethylaminophenyl) urea], in assay [1], the IC50 came out at 6700 nM. Besides, in assay [2], the IC50 is 6.2 nM and the “A/B Ratio” value is reported as 1,100.
As to `CN(C)c1cccc(NC(=O)NC2N=C(c3ccccn3)c3ccccc3N(CC(=O)C(C)(C)C)C2=O)c1` (racemic) [Example 38, N-((3RS)-1-tert-Butylcarbonylmethyl-2,3-dihydro-2-oxo-5-(2-pyridyl)-1H-1,4-benzodiazepin-3-yl)-N'-(3-dimethylaminophenyl) urea], the “Inhibidon (dose)” value in assay [3] (3 µmol/kg) is 100% (3 µmol/kg).
As for `CC(C)(C)C(=O)CN1C(=O)C(NC(=O)Nc2cccc(C(=O)O)c2)N=C(c2ccccn2)c2ccccc21` (racemic) [Example 39, N-((3RS)-1-tert-Butylcarbonylmethyl-2,3-dihydro-2-oxo-5-(2-pyridyl)-1H-1,4-benzodiazepin-3-yl)-N'-(3-carboxyphenyl) urea], in assay [1], the IC50 stood at 240 nM. Further, in assay [2], the IC50 came out at 0.1 nM and the “A/B Ratio” value is on record as 2,400.
As for `CCC(C)(C)C(=O)CN1C(=O)C(NC(=O)Nc2cccc(C(=O)O)c2)N=C(c2ccccc2)c2ccccc21` (racemic) [Example 37, N-((3RS)-1-tert-Amylcarbonylmethyl-2,3-dihydro-2-oxo-5-phenyl-1H-1,4-benzodiazepin-3-yl)-N'-(3-carboxyphenyl) urea], the IC50 in assay [1] stood at 5600 nM; in assay [2], 1.1 nM. Also, in assay [2], the “A/B Ratio” value was 5,100.
As to `Cc1cccc(NC(=O)NC2N=C(c3ccccn3)c3ccccc3N(CC(=O)C(C)(C)C)C2=O)c1` (racemic) [Example 27, N-((3RS)-1-tert-Butylcarbonylmethyl-2,3-dihydro-2-oxo-5-(2-pyridyl)-1H-1,4-benzodiazepin-3-yl)-N'-(3-methylphenyl) urea], the “Inhibidon (dose)” value in assay [3] (3 µmol/kg) is listed as 66% (3 µmol/kg).
Compound `CCC(C)(C)C(=O)CN1C(=O)C(NC(=O)Nc2cccc(C)c2)N=C(c2ccccc2)c2ccccc21` (racemic) [Example 36, N-((3RS)-1-tert-Amylcarbonylmethyl-2,3-dihydro-2-oxo-5-phenyl-1H-1,4-benzodiazepin-3-yl)-N'-(3-methylphenyl) urea] returned a half-inhibitory concentration (IC50) in assay [1] of 720 nM. Also, in assay [2], the IC50 amounted to 0.57 nM and the “A/B Ratio” value was 1,300.
Regarding `CC(C)(C)C(=O)CN1C(=O)C(NC(=O)Nc2cccc([N+](=O)[O-])c2)N=C(c2ccccc2)c2ccccc21` (racemic) [Example 45, N-((3RS)-1-tert-Butylcarbonylmethyl-2,3-dihydro-2-oxo-5-phenyl-1H-1,4-benzodiazepin-3-yl)-N'-(3-nitrophenyl) urea], the 50% inhibitory concentration (IC50) in assay [1] came out at 590 nM. The “A/B Ratio” value in assay [2] was 3,700.
Turning to `CN(C)c1cccc(NC(=O)N[C@@H]2N=C(c3ccccc3)c3ccccc3N(CC(=O)C(C)(C)C)C2=O)c1` [Example 64, N-((3R)-1-tert-Butylcarbonylmethyl-2,3-dihydro-2-oxo-5-phenyl-1H-1,4-benzodiazepin-3-yl)-N'-(3-dimethylaminophenyl) urea], the “Inhibidon (dose)” value in assay [3] (3 µmol/kg) was 100% (3 µmol/kg).
As for `CNc1cccc(NC(=O)N[C@@H]2N=C(c3ccccc3)c3ccccc3N(CC(=O)C(C)(C)C)C2=O)c1` [Example 56, N-((3R)-1-tert-Butylcarbonylmethyl-2,3-dihydro-2-oxo-5-phenyl-1H-1,4-benzodiazepin-3-yl)-N'-(3-methylaminophenyl) urea], the values for the IC50 in assay [1] (setting [4]) and in assay [2] (setting [5]) were 120 nM and 0.11 nM, respectively. The “A/B Ratio” value in assay [2] is on record as 1,100.
Take `Cc1cccc(NC(=O)N[C@@H]2N=C(c3ccccc3)c3ccccc3N(CC(=O)C(C)(C)C)C2=O)c1` [Example 26, N-((3R)-1-tert-Butylcarbonylmethyl-2,3-dihydro-2-oxo-5-phenyl-1H-1,4-benzodiazepin-3-yl)-N'-(3-methylphenyl) urea]: in assay [3] (3 µmol/kg), the “Inhibidon (dose)” value is on record as 53% (3 µmol/kg).
In the case of `CC(C)(C)C(=O)CN1C(=O)[C@H](NC(=O)Nc2cccc(N)c2)N=C(c2ccccc2)c2ccccc21` [Example 66, N-((3R)-1-tert-Butylcarbonylmethyl-2,3-dihydro-2-oxo-5-phenyl-1H-1,4-benzodiazepin-3-yl)-N'-(3-aminophenyl) urea], the values for the IC50 in assay [1] (setting [4]) and in assay [2] (setting [5]) were 950 nM and 0.5 nM, respectively. Besides, the “A/B Ratio” value in assay [2] is recorded as 1,900.
As to `Cc1cccc(NC(=O)N[C@@H]2N=C(c3ccccc3)c3ccccc3N(C)C2=O)c1` [reference compound], the IC50 stood at 12000 nM in assay [1] (setting [4]) and 29 nM in assay [2] (setting [5]). For the same compound, the “A/B Ratio” value in assay [2] stood at 410. Moreover, the “Inhibidon (dose)” value in assay [3] (100 µmol/kg) is recorded as 0% (100 µmol/kg).

The values are drawn from patent publication EP1342719B1, “Benzodiazepine derivatives useful as CCK-Receptor Antagonists” (Ferring BV, priority 1992, dated 1993).
